Data on ten molecules can be found in patent US8614247B2, “Methods for preventing, attenuating or treating pulmonary hypertension using a serotonin transporter inhibitor, and pharmaceutical compositions for the treatment thereof” (Institut National de la Sante et de la Recherche Medicale, priority 2003, dated 2013).

The test system of data set [1] is human pulmonary artery smooth muscle cells (PA-SMCs). As to the kind of experiment: 5-HT-induced proliferation of human PA-SMCs ([3H]thymidine incorporation). The format is cell-based. Conditions: cells in 0.2% FCS; for 5-HT-induced increase in [3H]thymidine incorporation (mitogenic response to 5-HT): drug at 10^−5 M, added before 5-HT. The protocol: Effect of 5-HT on the Proliferation of Human Pulmonary Artery Smooth Muscle Cells (PA-SMCs)
The methods used for the culture and the characterization of human PA-SMCs have been previously described (Eddahibi, Humbert et al. 2001). In brief, PA-SMCs were obtained from patients undergoing lung resection for cancer. They were seeded in 24-well plates at a density of 5×10^4 cells/well and allowed to adhere in DMEM supplemented with 15% fœtal calf serum (FCS). Cells were then subjected to 48 h of growth arrest in medium containing only 0.2% FCS before being incubated in DMEM supplemented with 0.2% FCS, 0.6 mM of ascorbic acid, 0.1 mM of iproniazid (a monoamine oxidase inhibitor), 0.6 μCi/mL of [^3H]thymidine, with or without 5-HT (10^−8 to 10^−6 M). […] Each of these drugs was added 20 min before 5-HT. After incubation for 24 hours, cells were washed twice with PBS, treated with ice-cold 10% trichloroacetic acid (1 ml/well), and dissolved in 0.1 N NaOH (0.5 ml/well). The incorporated radioactivity was counted and reported as cpm per well.
(Dividing cells build labelled thymidine or BrdU into new DNA.)

For data set [2], the system named is mice in normoxia. As to the kind of experiment: Physiological parameters during normoxia after treatment. The format is in vivo, mice (C57BL6/J). Conditions: control mice 88±7 mmHg.
The test system of data set [3] is experimental hypoxic PH. The following applies: previous studies (Eddahibi, Raffestin et al. 1998); cited from earlier work.
Data set [4] concerns rat lung SMC and lung fibroblasts. Conditions: cited from earlier work.
Data set [5] concerns the target 5-HTT (Rattus norvegicus, UniProt P31652). The following applies: cited from earlier work.
Data set [6] deals with mice exposed to acute hypoxia. As to the kind of experiment: Hemodynamic response (RVSP) of normoxic mice to acute hypoxia. The format is in vivo, mice (C57BL6/J). Conditions: two-day pretreatment; for pressure (RVSP) response to acute hypoxia: antagonists 2 mg/kg/day i.p., compared with vehicle-treated controls. As to the method:
All experiments were performed using adult male mice (C57BL6/J, 8 weeks old) in conformity with the institutional guidelines that are in compliance with national and international laws and policies.
Mice were anaesthetized with ketamine (60 mg/kg, i.p) and xylazine (10 mg/kg, i.p). The trachea was cannulated, and the lungs were ventilated with room air at a tidal volume of 0.2 ml and a rate of 90 breaths per minute. Systemic arterial pressure was determined by catheterization of the carotid artery. A 26-gauge needle was then introduced percutaneously into the right ventricle via the subxyphoid approach. Right ventricular systolic pressure (RVSP) was measured using a Gould P10 EZ pressure transducer connected to pressure modules and a Gould TA 550 recorder. RVSP and heart rate were recorded first while the animal was ventilated with room air and then after 5 min of ventilation with hypoxic gas mixture (8% O2, 92% N2). […] If the heart rate fell below 300 bpm, measurements were excluded from analysis.
To investigate the effects of 5-HTT inhibition and/or 5-HT receptor blockade on acute hypoxic vasoconstriction, nine groups of mice (6-7 in each group) were studied. […] The last group consisted of control animals that received distilled water by gavage. The treatments were performed for two days and acute hypoxic vasoconstriction was measured on the following day one hour after the last treatment.

Data set [7] relates to mice exposed to chronic hypoxia. The format is in vivo, mice (C57BL6/J). Conditions: for muscularization of distal pulmonary vessels: vs control mice under similar hypoxic conditions; for hypoxia-induced increase in RVSP: 2-week hypoxia (10% O2), daily treatment: citalopram, fluoxetine 10 mg/kg/day, ketanserin 2 mg/kg/day, GR127935 2 or 10 mg/kg/day, vs vehicle. As to the method: All experiments were performed using adult male mice (C57BL6/J, 8 weeks old) in conformity with the institutional guidelines that are in compliance with national and international laws and policies. […] To establish the hypoxic environment, the chamber was flushed with a mixture of room air and nitrogen, and the gas was recirculated. The chamber environment was monitored using an oxygen analyzer (Servomex OA150, Crowborough, England). Carbon dioxide was removed by soda lime granules, and excess humidity was prevented by cooling the recirculation circuit. The chamber temperature was maintained at 22-24° C. The chamber was opened every other day for 1 hour to clean the cages and replenish food and water supplies. Normoxic mice were kept in the same room, with the same light-dark cycle. […] After incision of the abdomen and diaphragm, a 26-gauge needle connected to a pressure transducer was inserted into the right ventricle, and RVSP was recorded immediately. Blood was then sampled for hematocrit determination. […] The right ventricle (RV) was dissected from the left ventricle+septum (LV+S), and these dissected samples were weighed. The lungs were fixed by intratracheal infusion of 4% aqueous buffered formalin at a pressure of 23 cm H2O. The entire specimen was immersed in a bath of the same fixative for one week. A midsagittal slice of the right lung including the apical, azygous and diaphragmatic lobes was processed for paraffin embedding. Sections (5 μm thick) were cut for light microscopy and stained with hematoxylin-phloxin-saffron and orcein-picroindigo-carmine. In each mouse, a total of 50-60 […] vessels accompanying either alveolar ducts or alveoli were analyzed by an observer blinded to treatment. Each vessel was categorized as nonmuscular (no evidence of any vessel wall muscularization), partially muscular (SMCs identifiable in less than three-fourths of the vessel circumference), or fully muscular (SMCs in more than three-fourths of the vessel circumference). […] The percentage of pulmonary vessels in each muscularization category was determined by dividing the number of vessels in that category by the total number counted in the same experimental group. […] The animals were treated once a day during the two-week exposure to hypoxia.

Data set [8] relates to rats. Conditions: Keegan et al. 2001; cited from earlier work.
The mark [9] stands for this setting: 2-week chronic hypoxia, daily treatment.

Structures are written as SMILES.

5-HTT, sequence (P31652 whole entry): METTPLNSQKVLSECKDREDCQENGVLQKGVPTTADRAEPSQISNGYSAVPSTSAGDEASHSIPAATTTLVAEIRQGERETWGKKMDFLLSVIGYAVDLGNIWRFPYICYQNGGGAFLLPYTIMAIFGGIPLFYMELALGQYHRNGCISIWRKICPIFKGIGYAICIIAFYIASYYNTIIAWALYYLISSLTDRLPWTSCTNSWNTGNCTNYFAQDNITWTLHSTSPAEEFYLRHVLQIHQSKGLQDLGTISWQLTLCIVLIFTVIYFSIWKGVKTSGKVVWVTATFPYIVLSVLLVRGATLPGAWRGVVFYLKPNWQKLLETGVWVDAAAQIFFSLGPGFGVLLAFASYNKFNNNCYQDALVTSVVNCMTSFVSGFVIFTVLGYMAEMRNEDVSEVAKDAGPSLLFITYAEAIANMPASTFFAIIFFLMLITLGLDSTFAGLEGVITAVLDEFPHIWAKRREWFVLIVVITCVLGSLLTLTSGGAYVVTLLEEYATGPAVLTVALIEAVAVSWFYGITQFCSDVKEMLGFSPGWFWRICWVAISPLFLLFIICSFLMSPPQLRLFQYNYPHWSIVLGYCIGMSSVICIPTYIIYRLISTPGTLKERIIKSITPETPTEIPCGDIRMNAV

As for `Cl.Cn1ccc2cc3c(cc21)CCN3C(=O)Nc1cccnc1` [SB 206553, N-3-pyridinyl-3,5-dihydro-5-methyl-benzo[1,2-b:4,5-b′]dipyrrole-1(2H)-carboxamide hydrochloride], in data set [1], the “5-HT-induced increase in [3H]thymidine incorporation (mitogenic response to 5-HT)” value (from here on “5-HT-induced increase”) is given as “not affected”.

For the molecule `CN(C)CCCC1(c2ccc(F)cc2)OCc2cc(C#N)ccc21` (stereo not shown) [citalopram], the “Mean systemic arterial pressure” value in data set [2] is 87±7 mmHg.

As for `CCN[C@@H](C)Cc1cccc(C(F)(F)F)c1` [dexfenfluramine], the “development of experimental hypoxic PH” value in data set [3] is listed as “not to attenuate”.

Consider `NCCc1c[nH]c2ccc(O)cc12` [5-HT, 5-hydroxytryptamine], for which the “[3H]thymidine incorporation” value in data set [1] (5-HT 10^−8-10^−6 M) is given as “concentration-dependent increase”.

Turning to `CCNC(C)Cc1cccc(C(F)(F)F)c1` (stereo not shown) [fenfluramine], in data set [4], the mitogenic effect entry is given as “mitogenic”.

Turning to `CC(C)(N)Cc1ccc(Cl)cc1` [chlorphentermine], in data set [5], the 5-HTT substrate was 5-HTT substrates.

Regarding `NC1=NCC(c2ccccc2)O1` (stereo not shown) [a minorex], the 5-HTT substrate in data set [5] is on record as 5-HTT substrates.

Consider `COc1ccc(NC(=O)c2ccc(-c3ccc(-c4noc(C)n4)cc3C)cc2)cc1N1CCN(C)CC1` [GR127935, 2′-methyl-4′-(5-methyl-[1,2,4]oxadiazol-3-yl)-biphenyl-4-carboxylic acid [4-methoxy-3-(4-methyl-piperazine-1-yl)-phenyl]amide], for which, in data set [1], the “5-HT-induced increase” value is listed as “not affected”. Further, in data set [6], the “pressure (RVSP) response to acute hypoxia” value was “abolished the pressure response to hypoxia”. Moreover, the “Mean systemic arterial pressure” value in data set [2] was 85±6 mmHg. Also, in data set [7] (setting [9]), the “muscularization of distal pulmonary vessels” value was “did not affect”. For the same molecule, the “right ventricular hypertrophy (RV/LV+S ratio)” value in data set [7] (2-week chronic hypoxia, daily treatment, vs hypoxic vehicle-treated mice (41.5±1.5%)) is on record as “did not differ”. Further, the “hypoxia-induced increase in RVSP” value in data set [7] is on record as “did not differ”. Besides, the “protection against development of PH” value in data set [8] is “partial protection”.

Turning to `CNCCC(Oc1ccc(C(F)(F)F)cc1)c1ccccc1` (stereo not shown) [fluoxetine], the “5-HT-induced increase” value in data set [1] is reported as “completely abolished”. The “baseline RVSP” value in data set [6] (10 mg/kg/day by gavage, normoxic ventilation) is reported as “did not alter”. Further, in data set [2], the “Mean systemic arterial pressure” value amounted to 86±5 mmHg. Further, the “muscularization of distal pulmonary vessels” value in data set [7] (setting [9]) is “markedly attenuated”. Also, in data set [7], the “hypoxia-induced increase in RVSP” value is listed as “significantly attenuated”.

As for `O=C(c1ccc(F)cc1)C1CCN(CCn2c(=O)[nH]c3ccccc3c2=O)CC1` [ketanserin], the “5-HT-induced increase” value in data set [1] is recorded as “not affected”. The “pressure (RVSP) response to acute hypoxia” value in data set [6] is listed as “altered neither the response to acute hypoxia”. Also, the “Mean systemic arterial pressure” value in data set [2] is given as 83±4 mmHg.
